Values joined by “and” are separate entries in the source; they are usually repeats but may differ in a detail not shown here. Equal entries are not always repeated. Square brackets hold non-standard residues; d marks the D form. Peptide text beside a SMILES is read from it. * marks the point of attachment. Sta = CC(C)C[C@H](N)[C@@H](O)CC(=O)O; Isovaleryl = CC(C)CC(=O)* Where only a bound is given, the exact number is not on record here.

Series [1] has as its system HIV protease. To be noted: cited from earlier work.
The test system of series [2] is HIV-1. To be noted: single dose; cited from earlier work.
The test system of series [3] is HIV. To be noted: cited from earlier work.
Series [4] addresses T1, HIV-1 protease (Human immunodeficiency virus type 1 group M subtype B, UniProt P04585). As to the kind of experiment: biochemical. To be noted: for inhibition at 0.37 µM: read-out: HIV-1 Protease % Inhib, dose 0.370 uM; for inhibition at 1.1 µM: read-out: HIV-1 Protease % Inhib, dose 1.100 uM; for inhibition at 30 µM: read-out: HIV-1 Protease % Inhib, dose 30.000 uM. Put shortly: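 Biotinylated, FITC-labeled peptide substrate (20 μl of 0.2 μM) incubated with HIV-1 protease (10 μl of 0.1 μM) and compound in 0.1 M sodium acetate pH 5.5, 1.0 M NaCl, 0.05% NP-40, 1 h, room temperature, dark. Streptavidin beads then capture uncleaved substrate; filtered labeled product read by fluorescence, giving percent inhibition.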

Series [5] concerns HIV-1IIIB. As to the kind of experiment: inhibition of retroviral replication in HIV-1IIIB infected human T-cell lines (MT4 and H9). The series is classed as cell-based. The settings on record: e.g. As for the experimental part: Several compounds of the present invention, such as N-[3-[cyclopropyl(5,6,7,8,9,10-hexahydro-4-hydroxy-2-oxo-2H-cycloocta[b]pyran-3-yl)methyl]phenyl]-4-fluorobenzenesulfonamide and 4-cyano-N-[3-[cyclopropyl(5,6,7,8,9,10-hexahydro-4-hydroxy-2-oxo-2H-cycloocta[b]pyran-3-yl)methyl]phenyl]-benzenesulfonamide were tested in known human cell lines, such as human T-cell lines, e.g., MT4 and H9, which were infected with HIV-1IIIB, and certain of these compounds were further tested in peripheral blood mononuclear cells (PBMC), which were infected with HIV-1JRCSF (a clinical isolate).

The target in series [6] is T1, HIV-1 protease. As to the kind of experiment: biochemical. To be noted: read-out: HIV-1 FITC KI. In outline:
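Ki from two-fold serial inhibitor dilutions (24–48 concentrations) with 40 nM HIV-1 protease stock and 200 μM substrate stock, 90 min at room temperature; stopped with avidin beads. Reference inhibitor run in parallel; Ki by nonlinear least-squares fit.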

For series [7], the system named is p55 Processing in vVk-1 infected CV-1 Cells. As to the kind of experiment: CV-1 Cell Assay: inhibition of p55 processing in vVK-1 infected CV-1 cells (p24 levels). Format: cell-based. The settings on record: Cercopithecidae, CV-1, read-out: CV-1 Cell Assay % Inhib. As for the experimental part:
Inhibition of p55 Processing in vVk-1 infected CV-1 Cells. CV-1 cells are seeded at 2×10^5 cells per well in 24-well Costar dishes and infected 4 to 6 hours later with vVK-1 at 5 plaque-forming units (PFU) per cell. Each compound is dissolved in Dulbecco's Modified Eagles medium (DMEM) containing 2.5% fetal bovine serum and is added to duplicate wells at the indicated final concentration 2 hours after virus addition. After 24 hours, the culture medium is removed and the monolayer washed with 1 mL of phosphate buffered saline (PBS), and the cells lysed by the addition of 0.1 mL of loading buffer (62.5 mM Tris (hydroxymethyl) aminomethane (Tris), pH 6.8, 2.3% sodium dodecyl sulfate (SDS), 5% β-mercaptoethanol, and 10% glycerol). The cell lysates are collected individually, placed in boiling water for 3 minutes, and then 0.025 mL of each sample is subjected to electrophoresis on 12% SDS-polyacrylamide gels. The proteins are electroblotted onto nitrocellulose and analyzed by protein immunoblotting. The primary antibodies are sheep antibody to p24 (International Enzyme, Inc., Fallbrook, Calif.) and the secondary antibody is alkaline-phosphatase-conjugated rabbit antibody to sheep immunoglobulin G (Kirkegaard & Perry Laboratories, Gaithersburg, Md.). The levels of immunoreactive proteins are quantified by densitometry (Bio-Rad, Model 260) with the accompanying 1-D Analyst Software. Inhibition refers to the mean percent decrease in p24 levels determined from the duplicate drug-treated samples compared to the nondrug-treated controls. […] Val-Ile-Amp (also known as N-[1-(cyclohexylmethyl)-2,3-dihydroxy-5-methyl-4-[[[2-methyl-1-[[(2-pyridinylmethyl)amino]carbonyl]butyl]-amino]carbonyl]hexyl]-α-[[(1-naphthalenyloxy)acetyl]amino]-, [1S-[1R*(R*),2S*,3S*,4S*(1R*,2R*)]]-1H-imidazole-4-propanamide) (which was disclosed in International Publication Number WO 87/05302, published 11 Sep. 1987) was also determined in each experiment.

As to `CC(=O)CC(c1ccccc1)c1c(O)c2ccccc2oc1=O` (stereo not drawn) [warfarin, 3-α-phenyl-β-acetylethyl-4-hydroxycoumarin], in series [1], the HIV protease inhibition result is listed as “displayed HIV protease inhibition”. The “effect on HIV-1 replication and viral transmission” value in series [2] is “inhibitory effect”.
For the compound `O=c1cc(O)c2ccccc2o1` [4-hydroxy-coumarin], the “effect on HIV-1 replication and viral transmission” value in series [2] is listed as “inhibitory effect”.
Take `O=c1ccc2ccc(O)cc2o1` [umbelliferone]: the “effect on HIV-1 replication and viral transmission” value in series [2] is recorded as “inhibitory effect”.
Take `O=c1[nH]cnc2c1ncn2[C@H]1CC[C@@H](CO)O1` [ddI]: the effect on liver entry in series [3] (human, in vivo) is listed as “stimulate hepatic glycolysis leading to irreversible liver damage”. Further, the limiting toxicity result in series [3] (humans) was “peripheral neuropathy and pancreatitis”.
In the case of `CC(C)CC(=O)N[C@H](C(=O)N[C@H](C(=O)N[C@@H](CC(C)C)[C@@H](O)CC(=O)N[C@@H](C)C(=O)N[C@@H](CC(C)C)[C@@H](O)CC(=O)O)C(C)C)C(C)C` [Pepstatin A] (Isovaleryl-VV[Sta]A[Sta]-OH), in series [1], the HIV protease inhibition entry is “inhibitor of HIV-I protease”.
Regarding `O=c1oc2c(c(O)c1C(c1cccc(NS(=O)(=O)c3ccc(F)cc3)c1)C1CC1)CCCCCC2` (stereo not drawn) [Example 268, N-[3-[Cyclopropyl(5,6,7,8,9,10-hexahydro-4-hydroxy-2-oxo-2H-cycloocta[b]pyran-3-yl)methyl]phenyl]-4-fluoro-benzenesulfonamide], in series [4] (read-out: HIV-1 Protease % Inhib, dose 0.123 uM), the inhibition at 0.123 µM worked out at 71.2%. In series [4], the inhibition at 0.37 µM was 88%, the inhibition at 1.1 µM was 96.2% and the inhibition at 30 µM was found to be 101%. Also, the inhibition at 3.3 µM in series [4] (read-out: HIV-1 Protease % Inhib, dose 3.300 uM) was 97.6%. The inhibition at 10 µM in series [4] (read-out: HIV-1 Protease % Inhib, dose 10.000 uM) is 101%. For the same compound, in series [5], the “inhibition of retroviral replication” value is given as “found to inhibit retrovital replication”.
In the case of `Cc1cn([C@H]2C[C@H](N=[N+]=[N-])[C@@H](CO)O2)c(=O)[nH]c1=O` [AZT, 3'-azido-3'-deoxy-thymidine], the “clinical effect in HIV infection/AIDS” value in series [3] (humans) is “decrease the mortality and frequency of opportunistic infections associated with AIDS”.
A word on the Ki: it is the equilibrium dissociation constant of an inhibitor or competing ligand from its target. Turning to `N#Cc1ccc(S(=O)(=O)Nc2cccc(C(c3c(O)c4c(oc3=O)CCCCCC4)C3CC3)c2)cc1` (stereo not drawn) [Example 262, 4-Cyano-N-[3-[cyclopropyl(5,6,7,8,9,10-hexahydro-4-hydroxy-2-oxo-2H-cycloocta[b]pyran-3-yl)methyl]phenyl]-benzenesulfonamide], in series [4] (dose 0.123 uM), the “HIV-1 Protease % Inhib” value is 83.32%. Moreover, the “HIV-1 Protease % Inhib” value in series [4] (dose 3.300 uM) came out at 121.87%. For the same compound, the “HIV-1 Protease % Inhib” value in series [4] (dose 10.000 uM) was 119.5%. For the same compound, in series [4], the inhibition at 0.37 µM is 103%, the inhibition at 1.1 µM was 113% and the inhibition at 30 µM is 115%. Besides, the “inhibition of retroviral replication” value in series [5] is recorded as “found to inhibit retrovital replication”. Besides, the Ki in series [6] was 1.4 nM and 0.44 nM and 1.01 nM and 0.6 nM.
Take `Nc1ccn([C@H]2CC[C@@H](CO)O2)c(=O)n1` [ddC]: the limiting toxicity entry in series [3] (humans) was “peripheral neuropathy which is reversible at low doses”.
For orientation: IC50 means the concentration needed to halve the response being measured. High values mean weaker potency, low ones greater potency. Take `CCCCC(c1ccccc1)c1c(O)c2ccccc2oc1=O` (stereo not drawn) [Example 11, 4-Hydroxy-3-(1-phenylpentyl)-coumarin]: in series [7], the inhibition at 100 µM was determined as 64% and the inhibition at 300 µM was 78%. Moreover, the IC50 in series [4] (HIV-1 Protease IC50) worked out at 1890 nM. Further, the inhibition at 0.098 µM in series [4] (read-out: HIV-1 Protease % Inhib, dose 0.098 uM) is below 10%. The inhibition at 0.195 µM in series [4] (read-out: HIV-1 Protease % Inhib, dose 0.195 uM) was below 10%. In addition, in series [4] (read-out: HIV-1 Protease % Inhib, dose 0.390 uM), the inhibition at 0.39 µM turned out to be 19.2%. The inhibition at 0.78 µM in series [4] (read-out: HIV-1 Protease % Inhib, dose 0.780 uM) was found to be 27.1%. Besides, the inhibition at 1.56 µM in series [4] (read-out: HIV-1 Protease % Inhib, dose 1.560 uM) came to 58.1%. The inhibition at 3.13 µM in series [4] (read-out: HIV-1 Protease % Inhib, dose 3.130 uM) was determined as 63.1%. The inhibition at 6.25 µM in series [4] (read-out: HIV-1 Protease % Inhib, dose 6.250 uM) was found to be 70.4%. Moreover, the inhibition at 12.5 µM in series [4] (read-out: HIV-1 Protease % Inhib, dose 12.500 uM) worked out at 82%. For the same compound, in series [4] (read-out: HIV-1 Protease % Inhib, dose 25.000 uM), the inhibition at 25 µM is 95.8%. Further, in series [4] (read-out: HIV-1 Protease % Inhib, dose 50.000 uM), the inhibition at 50 µM was 90.7%. In addition, in series [4] (read-out: HIV-1 Protease % Inhib, dose 100.000 uM), the inhibition at 100 µM stood at 105%. In addition, the inhibition at 200 µM in series [4] (read-out: HIV-1 Protease % Inhib, dose 200.000 uM) is 107%.

(Values after US5686486A, “4-hydroxy-benzopyran-2-ones and 4-hydroxy-cycloalkyl[b]pyran-2-ones useful to treat retroviral infections” (priority 1995, dated 1997).)
